The values that follow come from patent US5821267A, “Amidino derivatives useful as nitric oxide synthase inhibitors” (priority 1996, dated 1998).

Molecules are shown by their SMILES.

In assay [1] the test system is intracellular iNOS in RAW 264.7 cells. Description: Raw Cell Nitrite Assay. Conditions: Mus musculus, RAW264.7, LPS-induced RAW 264.7 cells, 30 μM L-arginine, 1 h at 37° C. It is filed as cell-based. Here is the method: RAW 264.7 cells are plated to confluency on a 96-well tissue culture plate grown overnight (17 h) in the presence of LPS to induce NOS. A row of 3-6 wells were left untreated and served as controls for subtraction of nonspecific background. The media was removed from each well and the cells are washed twice with Krebs-Ringers-Hepes (25 mM, pH 7.4) with 2 mg/ml glucose. The cells are then placed on ice and incubated with 50 μL of buffer containing L-arginine (30 μM) +/- inhibitors for 1 h. The assay is initiated by warming the plate to 37° C. in a water bath for 1 h. Production of nitrite by intracellular iNOS is linear with time. To terminate the cellular assay, the plate of cells is placed on ice and the nitrite-containing buffer removed and analyzed for nitrite using a previously published fluorescent determination for nitrite. All values are the average of triplicate wells and are compared to a background-subtracted induced set of cells (100% value).

For assay [2], the target named is T1, Rat brain constitutive nitric oxide synthase (rnNOS) (Rattus norvegicus, UniProt P29476).
T1 construct: an extract of rat cerebellum and partially purified by DEAE-Sepharose chromatography; from tissue; host or cells: rat cerebellum (extract, partially purified by DEAE-Sepharose)
The assay is described as follows: Citrulline Assay for Nitric Oxide Synthase, rat brain constitutive NOS. It is filed as biochemical. The conditions noted are these: rat brain cNOS; 50 nM calmodulin, 30 μM L-arginine, 37° C., 15 minutes. Here is the method: Nitric oxide synthase activity was measured by monitoring the conversion of [3H]-arginine to [3H]-citrulline. Mouse inducible nitric oxide synthase (miNOS) was prepared from an extract of LPS-treated RAW 264.7 cells and partially purified by DEAE-Sepharose chromatography. Rat brain constitutive nitric oxide synthase (rnNOS) was preparedfrom an extract of rat cerebellum and partially purified by DEAE-Sepharose chromatography. Enzyme and inhibitors were incubated at 37° C. for 15 minutes in a reaction volume of 100 μL with the following components added to start the reaction: 50 mM Tris (pH 7.6), 1 mg/ml bovine serum albumin, 1 mM DTT, 2 mM CaCl2, 10 μM FAD, 10 μM tetrahydrobiopterin, 30 μM L-arginine containing L-[2,3-3H]-arginine at 300 cpm/pmole and 1 mM NADPH. For constitutive NOS, 50 nM calmodulin was also added. The reaction was terminated by addition of cold stop buffer containing 10 mM EGTA, 100 mM HEPES, pH 5.5 and 1 mM citrulline. [3H]-Citrulline was separated by chromatography on Dowex 50W X-8 cation exchange resin and radioactivity determined with a liquid scintillation counter.

Assay [3] addresses T2, Mouse inducible nitric oxide synthase (miNOS) (Mus musculus, UniProt P29477).
T2 construct: was prepared from an extract of LPS-treated RAW 264.7 cells and partially purified by DEAE-Sepharose chromatography; endogenous in cells; host or cells: LPS-treated RAW 264.7 cells (extract, partially purified by DEAE-Sepharose)
The assay is described as follows: Citrulline Assay for Nitric Oxide Synthase, mouse inducible NOS. It is filed as biochemical. Conditions: mouse iNOS; 30 μM L-arginine, 37° C., 15 minutes.
Description: Nitric oxide synthase activity was measured by monitoring the conversion of [3H]-arginine to [3H]-citrulline. Mouse inducible nitric oxide synthase (miNOS) was prepared from an extract of LPS-treated RAW 264.7 cells and partially purified by DEAE-Sepharose chromatography. […] Enzyme and inhibitors were incubated at 37° C. for 15 minutes in a reaction volume of 100 μL with the following components added to start the reaction: 50 mM Tris (pH 7.6), 1 mg/ml bovine serum albumin, 1 mM DTT, 2 mM CaCl2, 10 μM FAD, 10 μM tetrahydrobiopterin, 30 μM L-arginine containing L-[2,3-3H]-arginine at 300 cpm/pmole and 1 mM NADPH. […] The reaction was terminated by addition of cold stop buffer containing 10 mM EGTA, 100 mM HEPES, pH 5.5 and 1 mM citrulline. [3H]-Citrulline was separated by chromatography on Dowex 50W X-8 cation exchange resin and radioactivity determined with a liquid scintillation counter.

T2 sequence (P29477 whole entry): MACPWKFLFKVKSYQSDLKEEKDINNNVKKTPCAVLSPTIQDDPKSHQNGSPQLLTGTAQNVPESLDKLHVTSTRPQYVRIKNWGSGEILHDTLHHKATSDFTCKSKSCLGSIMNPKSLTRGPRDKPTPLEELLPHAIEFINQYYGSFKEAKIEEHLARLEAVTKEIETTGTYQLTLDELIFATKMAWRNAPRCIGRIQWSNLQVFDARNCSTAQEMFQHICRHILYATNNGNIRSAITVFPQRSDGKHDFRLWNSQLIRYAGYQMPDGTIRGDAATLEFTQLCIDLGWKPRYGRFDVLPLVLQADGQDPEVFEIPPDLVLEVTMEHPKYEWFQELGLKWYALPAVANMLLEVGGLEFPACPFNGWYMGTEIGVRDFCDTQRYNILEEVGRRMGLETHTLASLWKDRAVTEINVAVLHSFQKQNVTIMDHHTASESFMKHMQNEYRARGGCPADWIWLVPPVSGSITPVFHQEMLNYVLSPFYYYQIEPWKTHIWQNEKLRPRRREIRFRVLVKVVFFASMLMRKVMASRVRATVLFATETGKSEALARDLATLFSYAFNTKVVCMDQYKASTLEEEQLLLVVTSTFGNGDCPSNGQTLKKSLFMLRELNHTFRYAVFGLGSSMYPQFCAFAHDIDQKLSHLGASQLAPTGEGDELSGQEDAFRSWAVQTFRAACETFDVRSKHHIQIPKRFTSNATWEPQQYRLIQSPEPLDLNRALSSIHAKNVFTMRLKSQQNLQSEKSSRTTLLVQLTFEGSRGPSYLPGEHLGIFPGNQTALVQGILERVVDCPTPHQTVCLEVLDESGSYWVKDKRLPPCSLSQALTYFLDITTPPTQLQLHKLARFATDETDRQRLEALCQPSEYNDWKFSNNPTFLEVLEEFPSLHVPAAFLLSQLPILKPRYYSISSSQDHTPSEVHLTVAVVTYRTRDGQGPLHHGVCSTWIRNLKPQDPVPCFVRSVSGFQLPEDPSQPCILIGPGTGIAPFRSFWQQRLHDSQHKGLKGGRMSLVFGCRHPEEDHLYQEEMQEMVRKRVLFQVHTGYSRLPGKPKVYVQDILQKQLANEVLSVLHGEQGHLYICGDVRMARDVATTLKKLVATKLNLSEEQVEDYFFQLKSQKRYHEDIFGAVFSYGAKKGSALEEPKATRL

In the case of `N=C(N)c1cccs1` [Example 8, 2-Amidinothiophene], the IC50 in assay [1] is 7 µM; in assay [2], 1.3 µM; in assay [3], 1 µM.

`CC(C)C(=N)N` [Example 3, Isopropylcarbamidine]: the IC50 in assay [2] came out at 31 µM; in assay [3], 27 µM.

With `CCCC(=N)N` [Example 4, 1-Propylcarbamidine], the IC50 in assay [2] worked out at 7.3 µM; in assay [3], 2 µM.

Turning to `N=C(N)c1ccco1` [Example 9, 2-Amidinofuran], the IC50 in assay [1] came to 158 µM; in assay [2], 3 µM; in assay [3] it was 3 µM.

With `CCC(=N)N` [Example 5, Ethylcarbamidine], the IC50 came to 44 µM in assay [2] and 16 µM in assay [3].

Turning to `CSCC(=N)N` [Example 11], the half-inhibitory concentration (IC50) was 60 µM in assay [1], 7 µM in assay [2] and 2 µM in assay [3].

For the compound `N=C(N)C1CC1` [Example 2, Cyclopropylcarbamidine], the IC50 in assay [1] was 46 µM; in assay [2], 10 µM; in assay [3], 2.3 µM.
